Reference: patent US11384060B2, “Amide compounds and use thereof” (ALPHALA CO., LTD., priority 2017, dated 2022)
Read-outs that look alike come from different tables or passages of the source.

Assays:
[1] = biological target: T1, glucagon receptor (GCGR) overexpressed CHO-K1 cells or human primary hepatocytes (Homo sapiens, UniProt P47871); assay: Glucagon cAMP inhibition assay (Cisbio cAMP Dynamic 2 HTRF); format: cell-based
T1 construct: expressed in transfected cells; host or cells: GCGR overexpressed CHO-K1 cells or human primary hepatocytes (endogenous receptor)
T1 sequence (P47871 26-477): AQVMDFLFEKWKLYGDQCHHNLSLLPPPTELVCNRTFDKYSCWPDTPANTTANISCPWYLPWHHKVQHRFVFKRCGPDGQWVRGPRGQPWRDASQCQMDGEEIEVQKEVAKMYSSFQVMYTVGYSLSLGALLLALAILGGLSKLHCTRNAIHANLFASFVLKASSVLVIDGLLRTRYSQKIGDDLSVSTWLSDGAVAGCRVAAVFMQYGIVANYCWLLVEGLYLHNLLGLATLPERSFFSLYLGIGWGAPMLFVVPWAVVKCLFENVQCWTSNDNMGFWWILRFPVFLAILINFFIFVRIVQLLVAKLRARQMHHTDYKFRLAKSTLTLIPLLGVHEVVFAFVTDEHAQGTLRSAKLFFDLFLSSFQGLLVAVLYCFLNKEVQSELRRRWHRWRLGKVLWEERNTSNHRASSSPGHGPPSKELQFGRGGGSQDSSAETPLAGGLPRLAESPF
Summary of the method: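 HTRF read-out of glucagon-induced cAMP, with IC50 from non-linear regression. Cells (GCGR CHO-K1 or human primary hepatocytes) in HBSS/0.1% BSA/800 nM IBMX took compound dilutions for 30 min (final DMSO 1%), then EC50-level glucagon for 30 min at room temperature, then a 60 min lysis/detection step.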

[2] = biological target: T2, glucagon receptor (GCGR) (Homo sapiens, UniProt P47871); assay: I125-glucagon binding assay (competition, GCGR membrane fractions)
T2 construct: expressed in transfected cells; host or cells: CHO-K1 cells overexpressing GCGR (membrane fractions)
T2 sequence (P47871 26-477): as above
Summary of the method: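 Competition of 0.0625 nM (final) I^125-glucagon for 30 min at 25° C, after 5 min compound preincubation, using 7.5 μg/well GCGR-overexpressing CHO-K1 membranes in 50 mM Tris pH 7.4, 0.5% BSA. Filtration onto PEI-coated GF/B, micro-beta counting, and non-linear regression gave IC50.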

| Compound | IC50 cAMP [1] | IC50 [2] | IC50 ([2]; uM) | IC50 cAMP ([1]; uM) |
| --- | --- | --- | --- | --- |
| CCOC(=O)CCNC(=O)c1ccc(N[C@@H](Cc2ccc(F)cc2)C(=O)Nc2ccc(-c3cc4ccccc4o3)cc2)cc1 [Compound 23-9, Ethyl (S)-3-(4-((1-((4-(benzofuran-2-yl)phenyl)amino)-3-(4-fluorophenyl)-1-oxopropan-2-yl)amino)benzamido)propanoate] | 2.6 µM | 1.94 µM | – | – |
| O=C(O)CCNC(=O)c1ccc(N[C@@H](Cc2ccc(F)cc2)C(=O)Nc2ccc(-c3cc4ccccc4o3)cc2)cc1 [Compound 23-10, (S)-3-(4-((1-((4-(benzofuran-2-yl)phenyl)amino)-3-(4-fluorophenyl)-1-oxopropan-2-yl)amino)benzamido)propanoic Acid] | 1.9 µM | 0.061 µM | – | – |
| CCOC(=O)CCNC(=O)c1ccc(N[C@@H](CC(C)C)C(=O)Nc2ccc(-c3cc4ccccc4s3)cc2)cc1 [Compound 23-11, Ethyl (S)-3-(4-((1-((4-(benzo[b]thiophen-2-yl)phenyl)amino)-4-methyl-1-oxopentan-2-yl)amino)benzamido)propanoate] | 6.8 µM | – | > 10 µM | – |
| CC(C)C[C@H](Nc1ccc(C(=O)NCCC(=O)O)cc1)C(=O)Nc1ccc(-c2cc3ccccc3s2)cc1 [Compound 23-12, (S)-3-(4-((1-((4-(benzo[b]thiophen-2-yl)phenyl)amino)-4-methyl-1-oxopentan-2-yl)amino)benzamido)propanoic Acid] | 4.1 µM | 0.375 µM | – | – |
| CCOC(=O)CCNC(=O)c1ccc(N[C@@H](Cc2cccc3ccccc23)C(=O)Nc2ccc(-c3cc4ccccc4o3)cc2)cc1 [Compound 23-13, Ethyl (S)-3-(4-((1-((4-(benzofuran-2-yl)phenyl)amino)-3-(naphthalen-1-yl)-1-oxopropan-2-yl)amino)benzamido)propanoate] | – | – | > 10 µM | >10 µM |
| O=C(O)CCNC(=O)c1ccc(N[C@@H](Cc2ccccc2)C(=O)Nc2ccc(-c3ccc(Cl)cc3Cl)cc2)cc1 [Compound 23-14, (S)-3-(4-((1-((2′,4′-dichloro-[1,1′-biphenyl]-4-yl)amino)-1-oxo-3-phenylpropan-2-yl)amino)benzamido)propanoic Acid] | – | – | > 10 µM | >10 µM |
| CCOC(=O)CCNC(=O)c1ccc(N[C@@H](Cc2ccccc2)C(=O)Nc2ccc(-c3ccc(Cl)cc3Cl)cc2)cc1 [Compound 23-15, Ethyl (S)-3-(4-((1-((2′,4′-dichloro-[1,1′-biphenyl]-4-yl)amino)-1-oxo-3-phenylpropan-2-yl)amino)benzamido)propanoate] | 6.3 µM | – | > 10 µM | – |
| O=C(O)CCNC(=O)c1ccc(N[C@@H](Cc2cccc3ccccc23)C(=O)Nc2ccc(-c3cc4ccccc4o3)cc2)cc1 [Compound 23-16] | 1.193 µM | 3.01 µM | – | – |
| CCOC(=O)CCNC(=O)c1ccc(N[C@@H](Cc2cccc3ccccc23)C(=O)Nc2ccc(C(C)(C)C)cc2)cc1 [Compound 23-17, Ethyl (S)-3-(4-((1-((4-(tert-butyl)phenyl)amino)-3-(naphthalen-1-yl)-1-oxopropan-2-yl)amino)benzamido)propanoate] | 7.4 µM | – | > 10 µM | – |
| CC(C)(C)c1ccc(NC(=O)[C@H](Cc2cccc3ccccc23)Nc2ccc(C(=O)NCCC(=O)O)cc2)cc1 [Compound 23-18, (S)-3-(4-((1-((4-(tert-butyl)phenyl)amino)-3-(naphthalen-1-yl)-1-oxopropan-2-yl)amino)benzamido)propanoic Acid] | 4.7 µM | 1.87 µM | – | – |
| CCOC(=O)CCNC(=O)c1ccc(N[C@@H](Cc2ccc3ccccc3c2)C(=O)Nc2ccc(C(C)(C)C)cc2)cc1 [Compound 23-19, Ethyl (S)-3-(4-((1-((4-(tert-butyl)phenyl)amino)-3-(naphthalen-2-yl)-1-oxopropan-2-yl)amino)benzamido)propanoate] | 5.4 µM | – | > 10 µM | – |
| CC(C)(C)c1ccc(NC(=O)[C@H](Cc2ccc3ccccc3c2)Nc2ccc(C(=O)NCCC(=O)O)cc2)cc1 [Compound 23-20, (S)-3-(4-((1-((4-(tert-butyl)phenyl)amino)-3-(naphthalen-2-yl)-1-oxopropan-2-yl)amino)benzamido)propanoic Acid] | 4.7 µM | 0.724 µM | – | – |
| CCOC(=O)CCNC(=O)c1ccc(N[C@@H](Cc2ccc3ccccc3c2)C(=O)Nc2ccc(-c3cc4ccccc4o3)cc2)cc1 [Compound 23-21, Ethyl (S)-3-(4-((1-((4-(benzofuran-2-yl)phenyl)amino)-3-(naphthalen-2-yl)-1-oxopropan-2-yl)amino)benzamido)propanoate] | – | – | > 10 µM | >10 µM |
| O=C(O)CCNC(=O)c1ccc(N[C@@H](Cc2ccc3ccccc3c2)C(=O)Nc2ccc(-c3cc4ccccc4o3)cc2)cc1 [Compound 23-22, (S)-3-(4-((1-((4-(benzofuran-2-yl)phenyl)amino)-3-(naphthalen-2-yl)-1-oxopropan-2-yl)amino)benzamido)propanoic Acid] | 32.1 µM | – | > 10 µM | – |
| O=C(O)CCNC(=O)c1ccc(N[C@@H](Cc2ccccc2)C(=O)Nc2ccc(-c3ccccc3C(F)(F)F)cc2)cc1 [Compound 23-23] | 5.8 µM | 4.15 µM | – | – |
| O=C(NCCS(=O)(=O)O)c1ccc(N[C@@H](Cc2ccccc2)C(=O)Nc2ccc(-c3cc4ccccc4o3)cc2)cc1 [Compound 23-24, (S)-2-(4-((1-((4-(benzofuran-2-yl)phenyl)amino)-1-oxo-3-phenylpropan-2-yl)amino)benzamido)ethane-1-sulfonic Acid] | – | – | > 10 µM | >10 µM |
| Cc1cc(C)c(-c2ccc(C[C@H](Nc3ccc(C(=O)NCCC(=O)O)cc3)C(=O)Nc3ccc(C(C)(C)C)cc3)cc2)c(C)c1 [Compound 23-25] | 3.1 µM | 0.458 µM | – | – |
| COC(=O)CCNC(=O)c1ccc(N[C@@H](CC(C)C)C(=O)Nc2ccc(-c3cc4ccccc4[nH]3)cc2)cc1 [Compound 23-28, Methyl (S)-3-(4-((1-((4-(1H-indol-2-yl)phenyl)amino)-4-methyl-1-oxopentan-2-yl)amino)benzamido)propanoate] | 0.179 µM | 6.94 µM | – | – |
| CC(C)C[C@H](Nc1ccc(C(=O)NCCC(=O)O)cc1)C(=O)Nc1ccc(-c2cc3ccccc3[nH]2)cc1 [Compound 23-29, (S)-3-(4-((1-((4-(1H-indol-2-yl)phenyl)amino)-4-methyl-1-oxopentan-2-yl)amino)benzamido)propanoic Acid] | – | 0.141 µM | – | >10 µM |
| CCOC(=O)CCNC(=O)c1ccc(N[C@H](C(=O)Nc2ccc(-c3cc4ccccc4o3)cc2)[C@@H](C)CC)cc1 [Compound 23-30] | 0.0252 µM | 1.48 µM | – | – |
| CC[C@H](C)[C@H](Nc1ccc(C(=O)NCCC(=O)O)cc1)C(=O)Nc1ccc(-c2cc3ccccc3o2)cc1 [Compound 23-31, 3-(4-(((2S,3S)-1-((4-(benzofuran-2-yl)phenyl)amino)-3-methyl-1-oxopentan-2-yl)amino)benzamido)propanoic Acid] | 4.145 µM | 0.294 µM | – | – |
| CCOC(=O)CCNC(=O)c1ccc(N[C@H](C(=O)Nc2ccc(-c3cc4ccccc4o3)cc2)C(C)C)cc1 [Compound 23-32, Ethyl (S)-3-(4-((1-((4-(benzofuran-2-yl)phenyl)amino)-3-methyl-1-oxobutan-2-yl)amino)benzamido)propanoate] | 0.0928 µM | 5.18 µM | – | – |
| CC(C)[C@H](Nc1ccc(C(=O)NCCC(=O)O)cc1)C(=O)Nc1ccc(-c2cc3ccccc3o2)cc1 [Compound 23-33, (S)-3-(4-((1-((4-(benzofuran-2-yl)phenyl)amino)-3-methyl-1-oxobutan-2-yl)amino)benzamido)propanoic Acid] | 1.633 µM | 1.01 µM | – | – |
| CC(C)[C@H](Nc1ccc(C(=O)NCCS(=O)(=O)O)cc1)C(=O)Nc1ccc(-c2cc3ccccc3o2)cc1 [Compound 23-34, (S)-2-(4-((1-((4-(benzofuran-2-yl)phenyl)amino)-3-methyl-1-oxobutan-2-yl)amino)benzamido)ethane-1-sulfonic Acid] | 75.611 µM | 2.57 µM | – | – |
| CCCC[C@H](Nc1ccc(C(=O)NCCC(=O)O)cc1)C(=O)Nc1ccc(-c2cc3ccccc3o2)cc1 [Compound 23-35, (S)-3-(4-((1-((4-(benzofuran-2-yl)phenyl)amino)-1-oxohexan-2-yl)amino)benzamido) propanoic Acid] | 15.397 µM | 0.186 µM | – | – |
| CCOC(=O)CCNC(=O)c1ccc(N[C@H](CC(C)C)C(=O)Nc2ccc(-c3cc4ccccc4o3)cc2)cc1 [Compound 24-1] | 1.5 µM | – | > 10 µM | – |
| CC(C)C[C@@H](Nc1ccc(C(=O)NCCC(=O)O)cc1)C(=O)Nc1ccc(-c2cc3ccccc3o2)cc1 [Compound 24-2, (R)-3-(4-((1-((4-(benzofuran-2-yl)phenyl)amino)-4-methyl-1-oxopentan-2-yl)amino)benzamido)propanoic Acid] | 0.5986 µM | 0.311 µM | – | – |
| CCOC(=O)CCNC(=O)c1ccc(N[C@H](Cc2ccccc2)C(=O)Nc2ccc(C(F)(F)F)cc2)cc1 [Compound 24-3, Ethyl (R)-3-(4-((1-oxo-3-phenyl-1-((4-(trifluoromethyl)phenyl)amino)propan-2-yl)amino)benzamido)propanoate] | 0.208 µM | – | > 10 µM | – |
